According to patent US12168665B2, “Substituted imidazo[l,2-a]pyrazines and pyrazino[l,2-a] pyrimidines as topical agents for dermatological applications” (Genesis Molecular Technologies, Inc., priority 2020, dated 2024):
Entries after “also recorded” stand apart in the source; their conditions may differ. Read-outs that look alike come from different tables or passages of the source.

Experiments:
[1] = tested on: TCF/LEF reporter activity; assay: Wnt/driven TCF/LEF reporter (Luc) activity in HEK293 cell line assay; assay type: cell-based; details: TCF/LEF reporter (Luc)-HEK293 cells, LiCl and mouse Wnt3a stimulation, read-out: IC50 value of compounds against TCF/LEF reporter activity
Description: Assay of Wnt/driven TCF/LEF reporter (Luc) activity in a stably transfected cell line. The Wnt/driven TCF/LEF reporter (Luc) activity in a stably transfected cell line assay was performed at BPS Bioscience (San Diego, CA 92121, USA). In brief, TCF/LEF reporter (Luc)-HEK293 cells are harvested from culture in growth medium and seeded at a density of about 35,000 cells per well into a white clear-bottom 96-well microplate in 80 μL of assay medium. 20 μL of 50 mM LiCl solution in assay medium are added to each well (final concentration 10 mM), and cells are incubated at 37° C. in a CO2 incubator for 16 hours. 10 μL of threefold serial dilution of mouse Wnt3a in assay medium are added to each stimulated well. The plate is incubated at 37° C. in a CO2 incubator for 6 hours. 100 μL of ONE-Step™ Luciferase Assay buffer per well are added and the plate is shaken for 30 min prior to measuring luminescence using a luminometer.
Exemplary compounds, wherein Y is hydrogen, of the present invention were tested for Wnt/driven TCF/LEF reporter (Luc) activity in HEK293 cell line assay. […] The positive control compound for this assay is IWR-1-endo, which is known in the art as a non-CBP/β-catenin Wnt antagonist, which stabilizes Axin-dependent β-catenin destruction (Chen, B., et al., Nat. Chem. Biol. 2009; 5(2):100-107).

[2] = tested on: CBP/β-catenin (Wnt-driven luciferase activity); assay: SuperTOPFLASH cell-based luciferase assay (Hek293, STF1.1); details: Homo sapiens; Hek293 STF1.1 cells; tested at 2.5, 5, 10 and 20 μM
Description: SuperTOPFLASH Cell-based Luciferase Assay. Hek-293,STF1.1 cells are maintained in DMEM, 10% FBS, Pen-Strep supplemented with 200 μg/mL G418. On the day prior to assay, cells are split into a white, opaque 96-well plate at 10,000 cells per well in 50 μL of complete medium without G418 (for screening of Wnt-signaling inhibitors, G418 can be left out during screening process). After allowing the cells to stabilize and attach overnight, 40 μL of complete medium (without G418) containing 2.5× final concentration of compound or DMSO control is added to the cells and allowed to incubate for 1 hour at 37° C., 5% CO2 prior to adding […] of a 100 mM LiCl solution prepared in complete medium (without G418). After 24 hours, 100 µL of BrightGlo™ (Promega, Cat. #: G7573) is added to each well and the plate is shaken for 5 minutes prior to reading on the Perkin-Elmer EnVision™ Plate Reader. […]

[3] = Stability by analytical HPLC analysis; assay type: physicochemical
Description: Analytical HPLC analysis was performed on an Agilent 1100 HPLC with a Phenomenex Luna C18 (2) column (3 micron, 150×4.6 mm id) at a flow rate of 0.6 mL/min, eluting with a binary solvent system A and B using a 35%-70% B in 20 min and then 70%-95% B in 5 min (gradient elution 1), or 70%-95% B in 25 min and then 95%-100% B in 3 min (gradient elution 2) (A: Milli-Q water with 0.1% TFA; B: CH3CN with 0.1% TFA). NMR spectra were recorded on a Bruker AV-300 300 MHz NMR instrument using DMSO-d6 or CDCl3 with TMS as an internal standard. Mass spectra data was obtained with Bruker Esquire Liquid Chromatography-Ion Trap Mass Spectrometer.
As is readily apparent, compound 6 is stable at room temperature both in a solid form and in organic solvents (e.g., CH3CN, and CH3OH).

human skin = assay: Cosmetic evaluation on human skin, topical formulation; assay type: in vivo; details: 0.15% wt./wt. topical formulation twice daily, 8 weeks
Source text: For cosmetic evaluation, compound 6 (0.15% wt./wt.) formulated in an aqueous based vehicle was topically applied twice daily (0.25 g formulation per application) during an 8-week testing period according to the following daytime/nighttime regimen.
During the study, subjects used no other skin care regimen. Prior to application of the test formulation, subjects washed their faces with Purpose cleanser, rinsed and then dry patted their faces. For each daytime and each nighttime application, 0.25 g of the test formulation (2 pumps from an applicator) was then applied to the entire face, around the eyes and onto the neck. Photographs (without any face and eye make-up), and self-assessment was performed before and after the 8-week period.

[4] = animal toxicity studies and clinical studies; cited from earlier work
[5] = tested on: hapten-induced atopic dermatitis-like dermatitis; details: preclinical study (Matsuda-Hirose 2019); cited from earlier work

## O=C1[C@H](Cc2ccc(O)cc2)N2C(=O)C[C@H](CO)N(C(=O)NCc3ccccc3)[C@H]2CN1Cc1cccc2ccccc12 [Compound 2, (2R,6S,9aS)—N-benzyl-6-(4-hydroxybenzyl)-2-(hydroxymethyl)-8-(naphthalen-1-ylmethyl)-4,7-dioxohexahydro-2H-pyrazino[1,2-a]pyrimidine-1(6H)-carboxamide]
[1]; Homo sapiens
  IC50: > 25 µM

## O=C1[C@H](Cc2ccc(O)cc2)N2C(=O)C[C@@H](CO)N(C(=O)NCc3ccccc3)[C@H]2CN1Cc1cccc2ccccc12 [Compound 3, (2S,6S,9aS)—N-benzyl-6-(4-hydroxybenzyl)-2-(hydroxymethyl)-8-(naphthalen-1-ylmethyl)-4,7-dioxohexahydro-2H-pyrazino[1,2-a]pyrimidine-1(6H)-carboxamide]
[1]; Homo sapiens
  IC50: 16 µM
[2]
  IC50: 2.5 µM

## O=C1[C@H](Cc2ccc(O)cc2)N2C(=O)[C@H](CO)N(C(=O)NCc3ccccc3)[C@H]2CN1Cc1cccc2ccccc12 [Compound 4, (2S,5S,8a5)-N-benzyl-5-(4-hydroxybenzyl)-2-(hydroxymethyl)-7-(naphthalen-1-ylmethyl)-3,6-dioxohexahydroimidazo[1,2-a]pyrazine-1(5H)-carboxamide]
[1]; Homo sapiens
  IC50: 11.2 µM

## O=C1[C@H](Cc2ccc(O)cc2)N2C(=O)[C@@H](CCO)N(C(=O)NCc3ccccc3)[C@H]2CN1Cc1cccc2ccccc12 [Compound 5, (2R,5S,8a5)-N-benzyl-5-(4-hydroxybenzyl)-2-(2-hydroxyethyl)-7-(naphthalen-1-ylmethyl)-3,6-dioxohexahydroimidazo[1,2-a]pyrazine-1(5H)-carboxamide]
[1]; Homo sapiens
  IC50: > 25 µM

## CCCCCCCCCCCC(=O)OC[C@@H]1CC(=O)N2[C@H](CN(Cc3cccc4ccccc34)C(=O)[C@@H]2Cc2ccc(O)cc2)N1C(=O)NCc1ccccc1 [Compound 6, (2S,6S,9aS)-1-(benzylcarbamoyl)-6-(4-hydroxybenzyl)-8-(naphthalen-1-ylmethyl)-4,7-dioxooctahydro-2H-pyrazino[1,2-a]pyrimidin-2-yl)methyl dodecanoate]
[3]; after 4 days at room temperature
  Degradation product detected by analytical HPLC: No degradation product
[3]; solid form and organic solvents (CH3CN, CH3OH), analytical HPLC
  Stability at room temperature: stable
Human skin
  Improvement of skin appearance (wrinkles, redness): improvement of skin appearance (e.g., reducing the appearance of wrinkles and redness) is achieved; also recorded: Skin improvement (e.g., reducing the extent and appearance of wrinkles) was visible

## O=C1[C@H](Cc2ccc(O)cc2)N2C(=O)CCN(C(=O)NCc3ccccc3)[C@H]2CN1Cc1cccc2ccccc12 [ICG-001]
[4]
  Safety at effective levels: extremely safe
[5]
  Effect on hapten-induced atopic dermatitis-like dermatitis: prevents the emergence of hapten-induced atopic dermatitis-like dermatitis

## O=C(Nc1cccc2cccnc12)c1ccc(N2C(=O)[C@@H]3[C@H](C2=O)[C@@H]2C=C[C@H]3C2)cc1 [IWR-1-endo, reference compound]
[1]
  IC50: 0.2 µM
